In this data set the test system is rodent carcinogenicity bioassays, tumor incidence. In words: CCRIS carcinogenicity studies. The gist of the method: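 Archive of carcinogenicity, mutagenicity, tumor promotion and tumor inhibition results drawn from journals, NCI reports and other sources, expert-reviewed; covers 1985-2011 and is no longer updated.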

The source made the active and inactive calls. No rule for the calls is given here.

Take `C1COCCO1`: the carcinogen call (Species: MOUSE, Strain/Sex: B6C3F1/FEMALE, Route: ORAL, Dose: 0, 0.5, 1.0% (V/V) IN DRINKING WATER, Dose: 0, 0.5, 1.0% (V/V) IN DRINKING WATER, Tumor Site: Type of Lesion: LIVER: HEPATOCELLULAR CARCINOMA OR ADENOMA) is “active; positive”; the carcinogen call (Species: MOUSE, Strain/Sex: B6C3F1/MALE, Route: ORAL, Dose: 0, 0.5, 1.0% (V/V) IN DRINKING WATER, Dose: 0, 0.5, 1.0% (V/V) IN DRINKING WATER, Tumor Site: Type of Lesion: LIVER: HEPATOCELLULAR CARCINOMA OR ADENOMA) was “active; positive”; the carcinogen call (Species: MOUSE, Strain/Sex: BDF1/FEMALE, Route: ORAL, Dose: 0, 500, 2000, 8000 PPM IN DRINKING WATER FOR 104 WK (STUDY DURATION: 105 WK), Dose: 0, 500, 2000, 8000 PPM IN DRINKING WATER FOR 104 WK (STUDY DURATION: 105 WK), Tumor Site: Type of Lesion: LIVER: HEPATOCELLULAR ADENOMA, HEPATOCELLULAR CARCINOMA) is “active; positive”; the carcinogen call (Species: MOUSE, Strain/Sex: BDF1/MALE, Route: ORAL, Dose: 0, 500, 2000, 8000 PPM IN DRINKING WATER FOR 104 WK (STUDY DURATION: 105 WK), Dose: 0, 500, 2000, 8000 PPM IN DRINKING WATER FOR 104 WK (STUDY DURATION: 105 WK), Tumor Site: Type of Lesion: LIVER: HEPATOCELLULAR ADENOMA, HEPATOCELLULAR CARCINOMA) was “active; positive”; the carcinogen call (Species: RAT, Strain/Sex: F344/FEMALE, Route: ORAL, Dose: 0, 200, 1000, 5000 PPM IN DRINKING WATER FOR 104 WK (STUDY DURATION: 105 WK), Dose: 0, 200, 1000, 5000 PPM IN DRINKING WATER FOR 104 WK (STUDY DURATION: 105 WK), Tumor Site: Type of Lesion: NASAL CAVITY: TUMOR, LIVER: HEPATOCELLULAR ADENOMA, HEPATOCELLULAR CARCINOMA, MAMMARY GLAND: TUMOR, Tumor Site: Type of Lesion: NASAL CAVITY: TUMOR, LIVER: HEPATOCELLULAR ADENOMA, HEPATOCELLULAR CARCINOMA, MAMMARY GLAND: TUMOR) is “active; positive”; the carcinogen call (Species: RAT, Strain/Sex: F344/MALE, Route: ORAL, Dose: 0, 200, 1000, 5000 PPM IN DRINKING WATER FOR 104 WK (STUDY DURATION: 105 WK), Dose: 0, 200, 1000, 5000 PPM IN DRINKING WATER FOR 104 WK (STUDY DURATION: 105 WK), Tumor Site: Type of Lesion: NASAL CAVITY: TUMOR, LIVER: HEPATOCELLULAR ADENOMA, HEPATOCELLULAR CARCINOMA, PERITONEUM: MESOTHELIOMA, SUBCUTIS: FIBROM, Tumor Site: Type of Lesion: NASAL CAVITY: TUMOR, LIVER: HEPATOCELLULAR ADENOMA, HEPATOCELLULAR CARCINOMA, PERITONEUM: MESOTHELIOMA, SUBCUTIS: FIBROM) is “active; positive”. Also, the carcinogen call is “active; positive” (Species: RAT, Strain/Sex: OSBORNE-MENDEL/FEMALE, Route: ORAL, Dose: 0, 0.5, 1.0% (V/V) IN DRINKING WATER, Dose: 0, 0.5, 1.0% (V/V) IN DRINKING WATER, Tumor Site: Type of Lesion: NASAL TURBINATES: SQUAMOUS CELL CARCINOMA, LIVER: HEPATOCELLULAR ADENOMA); “active; positive” (Species: RAT, Strain/Sex: OSBORNE-MENDEL/MALE, Route: ORAL, Dose: 0, 0.5, 1.0% (V/V) IN DRINKING WATER, Dose: 0, 0.5, 1.0% (V/V) IN DRINKING WATER, Tumor Site: Type of Lesion: NASAL TURBINATES: SQUAMOUS CELL CARCINOMA); “active; positive” (Species: RAT, Strain/Sex: SHERMAN/MALE,FEMALE, Route: ORAL, Dose: 0.01, 0.1, 1.0% IN DRINKING WATER FOR UP TO 716 D, Dose: 0.01, 0.1, 1.0% IN DRINKING WATER FOR UP TO 716 D, Tumor Site: Type of Lesion: LIVER: HEPATOCELLULAR CARCINOMA, CHOLANGIOMA); “active; positive” (Species: RAT, Strain/Sex: SPRAGUE-DAWLEY/MALE, Route: ORAL, Dose: 0.75, 1.0, 1.4, 1.8% IN DRINKING WATER FOR 13 MO, Dose: 0.75, 1.0, 1.4, 1.8% IN DRINKING WATER FOR 13 MO, Tumor Site: Type of Lesion: NASAL CAVITY: SQUAMOUS CELL CARCINOMA, ADENOCARCINOMA, LIVER: HEPATOMA, HEPATOCELLULAR CARCINOMA); “active; positive” (Species: RAT, Strain/Sex: WISTAR/MALE, Route: ORAL, Dose: 1% IN DRINKING WATER FOR 63 WK, Tumor Site: Type of Lesion: LIVER: NEOPLASTIC NODULE, HEPATOCELLULAR CARCINOMA).
Turning to `O[C@H]1C=Cc2nc3c(ccc4ccccc43)cc2[C@@H]1O`, the carcinogen call was “active; positive” (Species: MOUSE, Strain/Sex: SWISS/FEMALE, Route: INTRAPERITONEAL, Dose: 0, 1.05 UMOL GIVEN AS 150 NMOL IN 5 µL DMSO WITHIN 24 HR OF BIRTH, 300 NMOL IN 10 µL DMSO ON D 8 OF LIFE, AND 600 NMOL I, Tumor Site: Type of Lesion: LUNG: ADENOMA) and “active; positive” (Species: MOUSE, Strain/Sex: SWISS/MALE, Route: INTRAPERITONEAL, Dose: 0, 1.05 UMOL GIVEN AS 150 NMOL IN 5 µL DMSO WITHIN 24 HR OF BIRTH, 300 NMOL IN 10 µL DMSO ON D 8 OF LIFE, AND 600 NMOL I, Tumor Site: Type of Lesion: LUNG: ADENOMA).
Regarding `Nc1ccc(Cc2ccc(N)c(Cl)c2)cc1Cl`, the carcinogen call by setting is: (Species: MOUSE, Route: ORAL, Tumor Site: Type of Lesion: BLOOD VESSELS, LIVER) “active; positive”; (Species: RAT, Route: ORAL, Tumor Site: Type of Lesion: LIVER, LUNG) “active; positive”; (Species: RAT, Route: SUBCUTANEOUS, Tumor Site: Type of Lesion: LIVER, LUNG) “active; positive”; (Species: RAT, Strain/Sex: STRAIN-CD/FEMALE, Route: ORAL, Dose: 0, 1000 PPM IN PROTEIN-ADEQUATE (23%) DIET FOR 2 YR (STUDY DURATION: 2 YR), Tumor Site: Type of Lesion: LUNG: ADENOCARCINOMA) “active; positive”; (Species: RAT, Strain/Sex: STRAIN-CD/FEMALE, Route: ORAL, Dose: 0, 1000 PPM IN PROTEIN-DEFICIENT (7%) DIET FOR 16 MO (STUDY DURATION: 16 MO), Tumor Site: Type of Lesion: LUNG: ADENOCARCINOMA, MAMMARY GLAND: ADENOCARCINOMA) “active; positive”; (Species: RAT, Strain/Sex: STRAIN-CD/MALE, Route: ORAL, Dose: 0, 1000 PPM IN PROTEIN-ADEQUATE (23%) DIET FOR 2 YR (STUDY DURATION: 2 YR), Tumor Site: Type of Lesion: LUNG: ADENOCARCINOMA) “active; positive”. Also, the carcinogen call (Species: RAT, Strain/Sex: STRAIN-CD/MALE, Route: ORAL, Dose: 0, 1000 PPM IN PROTEIN-DEFICIENT (7%) DIET FOR 16 MO (STUDY DURATION: 16 MO), Tumor Site: Type of Lesion: LUNG: ADENOCARCINOMA, LIVER: HEPATOCELLULAR ADENOMA, HEPATOCELLULAR CARCINOMA) is “active; positive”.
As for `C=CC(=O)OCCCC`, the carcinogen call by setting is: (Species: MOUSE, Strain/Sex: C3H/MALE, Route: DERMAL, Dose: 0, 0.2 MG IN 25 µL ACETONE 3/WK FOR LIFESPAN (STUDY DURATION: LIFESPAN)) “inactive; negative”; (Species: RAT, Strain/Sex: SPRAGUE-DAWLEY/FEMALE, Route: INHALATION, Dose: 0, 15, 45, 135 PPM 6 HR/D 5 D/WK FOR 24 MO (STUDY DURATION: 130 WK), Dose: 0, 15, 45, 135 PPM 6 HR/D 5 D/WK FOR 24 MO (STUDY DURATION: 130 WK)) “inactive; negative”; (Species: RAT, Strain/Sex: SPRAGUE-DAWLEY/MALE, Route: INHALATION, Dose: 0, 15, 45, 135 PPM 6 HR/D 5 D/WK FOR 24 MO (STUDY DURATION: 130 WK), Dose: 0, 15, 45, 135 PPM 6 HR/D 5 D/WK FOR 24 MO (STUDY DURATION: 130 WK)) “inactive; negative”.
For `OC1c2cc3c4c(ccc5cccc(c54)C3)c2C2OC2C1O` (configuration not stated), the carcinogen call was “active; positive” (Species: MOUSE, Strain/Sex: ICR/FEMALE, Route: INTRAPERITONEAL, Dose: 0, 500 NMOL (TOTAL DOSE) ADMINISTERED IN DOSES OF 1/7, 2/7, AND 4/7 ON DAYS 1, 7, AND 15 OF LIFE, RESPECTIVELY (STUDY DU, Tumor Site: Type of Lesion: LUNG: TUMOR) and “active; positive” (Species: MOUSE, Strain/Sex: ICR/MALE, Route: INTRAPERITONEAL, Dose: 0, 500 NMOL (TOTAL DOSE) ADMINISTERED IN DOSES OF 1/7, 2/7, AND 4/7 ON DAYS 1, 7 AND 15 OF LIFE , RESPECTIVELY (STUDY DU, Tumor Site: Type of Lesion: LUNG: TUMOR, LIVER: TUMOR).
On to `CCOc1ccc(NC(=O)CC(C)O)cc1` (configuration not stated), for which the carcinogen call is, setting by setting: (Species: MOUSE, Strain/Sex: B6C3F1/FEMALE, Route: ORAL, Dose: 0, 0.75, 1.5% IN BASAL DIET FOR 76 WK FOLLOWED BY BASAL DIET ONLY FOR 8 WK (STUDY DURATION: 84 WK), Dose: 0, 0.75, 1.5% IN BASAL DIET FOR 76 WK FOLLOWED BY BASAL DIET ONLY FOR 8 WK (STUDY DURATION: 84 WK)) “inactive; negative”; (Species: MOUSE, Strain/Sex: B6C3F1/MALE, Route: ORAL, Dose: 0, 0.75, 1.5% IN BASAL DIET FOR 76 WK FOLLOWED BY BASAL DIET ONLY FOR 8 WK (STUDY DURATION: 84 WK), Dose: 0, 0.75, 1.5% IN BASAL DIET FOR 76 WK FOLLOWED BY BASAL DIET ONLY FOR 8 WK (STUDY DURATION: 84 WK), Tumor Site: Type of Lesion: KIDNEY: RENAL CELL ADENOMA, RENAL CELL CARCINOMA) “active; positive”.

The record behind these values is PubChem BioAssay AID1259411 (Chemical Carcinogenesis Research Information System (CCRIS), 2018).
